Reference: ChEMBL document CHEMBL3045468, “I2 catalyzed FriedelCrafts alkylation reaction of substituted anilines with ninhydrin: formation of novel products and their antimicrobial evaluation” (2013)
Values after ≈ are worked out from the molar mass of the structure shown.

Experiments:
Assay type in all cases: functional
Shigella dysenteriae = assay: Antibacterial activity against Shigella dysenteriae 15 clinical isolate assessed as growth inhibition after 24 hr by agar dilution method; settings: Shigella dysenteriae, 15, 24 h
Bacillus pumilus = assay: Antibacterial activity against Bacillus pumilus 11778 clinical isolate assessed as growth inhibition after 24 hr by agar dilution method; settings: Bacillus pumilus, 11778, 24 h
Staphylococcus aureus = assay: Antibacterial activity against Staphylococcus aureus 29737 clinical isolate assessed as growth inhibition after 24 hr by agar dilution method; settings: Staphylococcus aureus, 29737, 24 h

**Q.** Which results are given for `CC1(C)S[C@@H]2[C@H](NC(=O)[C@H](N)c3ccc(O)cc3)C(=O)N2[C@H]1C(=O)O` [AMOXICILLIN]?
**A.** MIC (Shigella dysenteriae): 10000 µg/mL (≈ 27400 µM); MIC (Bacillus pumilus): 500 µg/mL (≈ 1370 µM); MIC (Staphylococcus aureus): 500 µg/mL (≈ 1370 µM)
